PubChem BioAssay AID1982 (Sanford-Burnham Center for Chemical Genomics, 2009)
Calls of active or inactive are those of the source. How the calls were made is not given here.

Assays:
Assay in all cases: kinase panel binding selectivity, selectivity assay, biochemical, KINOMEscan (AID 1982)
[1] = target: Receptor tyrosine-protein kinase erbB-4 (Homo sapiens) (UniProt Q15303); conditions: KINOMEscan 353-kinase binding panel, qPCR; ERBB4; at 10 µM; hits give low values
[2] = target: Epidermal growth factor receptor (Homo sapiens) (UniProt P00533); conditions: KINOMEscan 353-kinase binding panel, qPCR, at 10 µM, hits give low values
Epidermal growth factor receptor (Homo sapiens), sequence (P00533 whole entry, looked up): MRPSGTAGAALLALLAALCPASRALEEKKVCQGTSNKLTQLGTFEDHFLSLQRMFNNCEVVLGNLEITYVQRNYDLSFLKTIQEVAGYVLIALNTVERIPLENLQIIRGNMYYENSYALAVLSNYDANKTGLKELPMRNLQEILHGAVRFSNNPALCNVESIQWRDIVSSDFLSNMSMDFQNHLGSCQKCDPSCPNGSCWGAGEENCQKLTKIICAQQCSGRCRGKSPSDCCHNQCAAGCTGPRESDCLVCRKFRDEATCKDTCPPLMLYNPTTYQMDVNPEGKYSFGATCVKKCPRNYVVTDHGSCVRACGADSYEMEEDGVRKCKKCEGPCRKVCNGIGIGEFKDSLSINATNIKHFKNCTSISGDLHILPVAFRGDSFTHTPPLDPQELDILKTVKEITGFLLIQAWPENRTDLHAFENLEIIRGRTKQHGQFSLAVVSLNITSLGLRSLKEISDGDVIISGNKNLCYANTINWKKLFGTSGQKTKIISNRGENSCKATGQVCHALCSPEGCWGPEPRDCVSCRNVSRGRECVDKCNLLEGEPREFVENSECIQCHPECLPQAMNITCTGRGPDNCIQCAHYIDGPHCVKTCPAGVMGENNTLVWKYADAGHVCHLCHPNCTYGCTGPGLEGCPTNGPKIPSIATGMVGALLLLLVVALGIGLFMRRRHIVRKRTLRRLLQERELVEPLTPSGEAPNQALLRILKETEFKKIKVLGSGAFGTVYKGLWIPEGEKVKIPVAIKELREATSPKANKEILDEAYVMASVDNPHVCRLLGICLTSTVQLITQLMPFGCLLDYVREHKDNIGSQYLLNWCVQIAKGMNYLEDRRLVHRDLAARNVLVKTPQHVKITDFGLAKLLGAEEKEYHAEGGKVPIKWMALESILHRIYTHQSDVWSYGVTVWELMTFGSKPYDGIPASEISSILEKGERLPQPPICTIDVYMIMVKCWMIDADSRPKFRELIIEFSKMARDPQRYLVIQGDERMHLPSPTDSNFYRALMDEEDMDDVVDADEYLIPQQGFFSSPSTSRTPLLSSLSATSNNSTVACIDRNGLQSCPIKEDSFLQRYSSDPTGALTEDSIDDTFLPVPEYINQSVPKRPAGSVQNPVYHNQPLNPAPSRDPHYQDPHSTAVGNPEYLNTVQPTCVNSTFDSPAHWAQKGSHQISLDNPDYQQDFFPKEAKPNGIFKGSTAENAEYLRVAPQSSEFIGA

DMPK = conditions: KINOMEscan 353-kinase binding panel, qPCR, at 10 µM, hits give low values
[3] = target: LIM domain kinase 1 (Homo sapiens) (UniProt P53667); conditions: KINOMEscan 353-kinase binding panel, qPCR; LIMK1; at 10 µM; hits give low values
MAP3K3 = conditions: KINOMEscan 353-kinase binding panel, qPCR, at 10 µM, hits give low values
[4] = target: Mitogen-activated protein kinase 14 (Homo sapiens) (UniProt Q16539); conditions: KINOMEscan 353-kinase binding panel, qPCR; p38-alpha; at 10 µM; hits give low values
[5] = target: Insulin receptor (Homo sapiens) (UniProt P06213); conditions: KINOMEscan 353-kinase binding panel, qPCR; INSR; at 10 µM; hits give low values
ERK3 = conditions: KINOMEscan 353-kinase binding panel, qPCR, at 10 µM, hits give low values
[6] = target: Mitogen-activated protein kinase kinase kinase 10 (Homo sapiens) (UniProt Q02779); conditions: KINOMEscan 353-kinase binding panel, qPCR; MLK2; at 10 µM; hits give low values
ZAP70 = conditions: KINOMEscan 353-kinase binding panel, qPCR, at 10 µM, hits give low values
[7] = target: Testis-specific serine/threonine-protein kinase 1 (Homo sapiens) (UniProt Q9BXA7); conditions: KINOMEscan 353-kinase binding panel, qPCR; TSSK1; at 10 µM; hits give low values
Testis-specific serine/threonine-protein kinase 1 (Homo sapiens), sequence (Q9BXA7 whole entry, looked up): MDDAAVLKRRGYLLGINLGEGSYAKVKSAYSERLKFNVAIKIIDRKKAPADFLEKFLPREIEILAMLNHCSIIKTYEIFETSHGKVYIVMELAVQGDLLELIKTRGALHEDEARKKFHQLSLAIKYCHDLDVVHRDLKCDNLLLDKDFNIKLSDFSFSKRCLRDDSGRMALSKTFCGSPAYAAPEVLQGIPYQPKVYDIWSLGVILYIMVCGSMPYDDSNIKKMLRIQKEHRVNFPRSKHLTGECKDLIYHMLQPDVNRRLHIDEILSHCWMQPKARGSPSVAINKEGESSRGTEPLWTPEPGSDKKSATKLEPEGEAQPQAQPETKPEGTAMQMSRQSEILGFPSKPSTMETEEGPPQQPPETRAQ

EPHA6 = conditions: KINOMEscan 353-kinase binding panel, qPCR, at 10 µM, hits give low values
MLK3 = conditions: KINOMEscan 353-kinase binding panel, qPCR, at 10 µM, hits give low values
[8] = target: Cyclin-dependent kinase 2 (Homo sapiens) (UniProt P24941); conditions: KINOMEscan 353-kinase binding panel, qPCR; CDK2; at 10 µM; hits give low values
[9] = target: Receptor tyrosine-protein kinase erbB-2 (Homo sapiens) (UniProt P04626); conditions: KINOMEscan 353-kinase binding panel, qPCR; ERBB2; at 10 µM; hits give low values
Receptor tyrosine-protein kinase erbB-2 (Homo sapiens), sequence (P04626 whole entry, looked up): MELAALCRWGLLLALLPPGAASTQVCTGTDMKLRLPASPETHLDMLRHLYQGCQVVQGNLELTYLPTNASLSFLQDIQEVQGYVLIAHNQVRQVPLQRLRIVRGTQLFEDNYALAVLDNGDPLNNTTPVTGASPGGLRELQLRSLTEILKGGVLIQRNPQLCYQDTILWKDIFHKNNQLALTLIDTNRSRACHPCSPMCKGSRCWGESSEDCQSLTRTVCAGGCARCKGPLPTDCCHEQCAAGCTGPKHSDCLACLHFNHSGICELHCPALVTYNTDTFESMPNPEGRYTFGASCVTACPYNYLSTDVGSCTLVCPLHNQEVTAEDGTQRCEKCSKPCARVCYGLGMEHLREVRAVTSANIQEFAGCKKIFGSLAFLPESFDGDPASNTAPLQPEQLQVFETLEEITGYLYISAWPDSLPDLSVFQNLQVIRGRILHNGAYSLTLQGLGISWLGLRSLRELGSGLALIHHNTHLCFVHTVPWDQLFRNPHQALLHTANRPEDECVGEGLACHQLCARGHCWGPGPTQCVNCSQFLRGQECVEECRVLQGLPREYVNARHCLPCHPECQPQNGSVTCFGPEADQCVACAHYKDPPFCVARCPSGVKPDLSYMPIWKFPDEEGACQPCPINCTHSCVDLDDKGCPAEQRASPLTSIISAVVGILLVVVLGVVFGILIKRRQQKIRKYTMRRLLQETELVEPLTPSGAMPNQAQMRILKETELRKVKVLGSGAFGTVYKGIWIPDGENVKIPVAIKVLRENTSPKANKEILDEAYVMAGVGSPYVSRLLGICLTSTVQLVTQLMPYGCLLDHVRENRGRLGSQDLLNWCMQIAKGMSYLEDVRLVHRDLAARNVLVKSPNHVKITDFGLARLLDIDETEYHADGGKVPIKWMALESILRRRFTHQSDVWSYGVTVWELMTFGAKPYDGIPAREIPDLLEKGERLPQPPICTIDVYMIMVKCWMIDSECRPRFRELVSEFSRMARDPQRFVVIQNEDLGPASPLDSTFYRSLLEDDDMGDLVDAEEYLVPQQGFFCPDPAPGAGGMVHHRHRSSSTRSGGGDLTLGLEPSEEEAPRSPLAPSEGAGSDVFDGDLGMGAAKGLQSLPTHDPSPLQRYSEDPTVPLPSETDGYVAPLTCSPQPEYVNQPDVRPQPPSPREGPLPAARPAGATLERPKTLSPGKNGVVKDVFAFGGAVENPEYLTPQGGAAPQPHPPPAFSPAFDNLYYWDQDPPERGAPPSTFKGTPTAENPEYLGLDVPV

[10] = target: Fibroblast growth factor receptor 1 (Homo sapiens) (UniProt P11362); conditions: KINOMEscan 353-kinase binding panel, qPCR; FGFR1; at 10 µM; hits give low values
[11] = target: Serine/threonine-protein kinase PLK1 (Homo sapiens) (UniProt P53350); conditions: KINOMEscan 353-kinase binding panel, qPCR, at 10 µM, hits give low values
[12] = target: cGMP-dependent protein kinase 2 (Homo sapiens) (UniProt Q13237); conditions: KINOMEscan 353-kinase binding panel, qPCR; PRKG2; at 10 µM; hits give low values
PAK2 = conditions: KINOMEscan 353-kinase binding panel, qPCR, at 10 µM, hits give low values
[13] = target: Dual specificity mitogen-activated protein kinase kinase 1 (Homo sapiens) (UniProt Q02750); conditions: KINOMEscan 353-kinase binding panel, qPCR; MEK1; at 10 µM; hits give low values
[14] = target: Dual specificity protein kinase CLK3 (Homo sapiens) (UniProt P49761); conditions: KINOMEscan 353-kinase binding panel, qPCR, at 10 µM, hits give low values
NEK9 = conditions: KINOMEscan 353-kinase binding panel, qPCR, at 10 µM, hits give low values
[15] = target: Death-associated protein kinase 3 (Homo sapiens) (UniProt O43293); conditions: KINOMEscan 353-kinase binding panel, qPCR; DAPK3; at 10 µM; hits give low values
[16] = target: Serine/threonine-protein kinase B-raf (Homo sapiens) (UniProt P15056); conditions: KINOMEscan 353-kinase binding panel, qPCR, at 10 µM, hits give low values
Serine/threonine-protein kinase B-raf (Homo sapiens), sequence (P15056 whole entry, looked up): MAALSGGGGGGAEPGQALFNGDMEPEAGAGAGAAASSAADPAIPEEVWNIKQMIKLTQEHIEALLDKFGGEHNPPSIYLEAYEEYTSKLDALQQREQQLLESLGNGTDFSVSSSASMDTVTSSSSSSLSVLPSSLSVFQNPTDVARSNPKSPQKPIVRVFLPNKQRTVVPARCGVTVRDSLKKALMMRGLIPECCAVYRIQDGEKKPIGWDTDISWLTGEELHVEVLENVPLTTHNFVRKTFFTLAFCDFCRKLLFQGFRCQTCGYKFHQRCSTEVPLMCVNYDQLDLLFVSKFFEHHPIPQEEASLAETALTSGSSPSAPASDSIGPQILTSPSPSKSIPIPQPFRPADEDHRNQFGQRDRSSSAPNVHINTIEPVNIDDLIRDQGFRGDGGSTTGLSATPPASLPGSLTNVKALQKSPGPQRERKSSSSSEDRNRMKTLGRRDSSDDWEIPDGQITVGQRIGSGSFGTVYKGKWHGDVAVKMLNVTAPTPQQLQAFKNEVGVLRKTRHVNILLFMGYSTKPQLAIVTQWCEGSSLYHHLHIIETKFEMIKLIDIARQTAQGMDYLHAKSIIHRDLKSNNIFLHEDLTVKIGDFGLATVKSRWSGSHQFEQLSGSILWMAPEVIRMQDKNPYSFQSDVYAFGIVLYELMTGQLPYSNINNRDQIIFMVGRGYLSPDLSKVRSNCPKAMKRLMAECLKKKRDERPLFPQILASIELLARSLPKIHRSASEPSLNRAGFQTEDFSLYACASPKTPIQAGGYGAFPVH

[17] = target: MAP/microtubule affinity-regulating kinase 4 (Homo sapiens) (UniProt Q96L34); conditions: KINOMEscan 353-kinase binding panel, qPCR; MARK4; at 10 µM; hits give low values
[18] = target: MAP kinase-interacting serine/threonine-protein kinase 2 (Homo sapiens) (UniProt Q9HBH9); conditions: KINOMEscan 353-kinase binding panel, qPCR; MKNK2; at 10 µM; hits give low values
DMPK2 = conditions: KINOMEscan 353-kinase binding panel, qPCR, at 10 µM, hits give low values
MLCK = conditions: KINOMEscan 353-kinase binding panel, qPCR, at 10 µM, hits give low values
ADCK4 = conditions: KINOMEscan 353-kinase binding panel, qPCR, at 10 µM, hits give low values

Receptor tyrosine-protein kinase erbB-4 (Homo sapiens), sequence (Q15303 whole entry, looked up): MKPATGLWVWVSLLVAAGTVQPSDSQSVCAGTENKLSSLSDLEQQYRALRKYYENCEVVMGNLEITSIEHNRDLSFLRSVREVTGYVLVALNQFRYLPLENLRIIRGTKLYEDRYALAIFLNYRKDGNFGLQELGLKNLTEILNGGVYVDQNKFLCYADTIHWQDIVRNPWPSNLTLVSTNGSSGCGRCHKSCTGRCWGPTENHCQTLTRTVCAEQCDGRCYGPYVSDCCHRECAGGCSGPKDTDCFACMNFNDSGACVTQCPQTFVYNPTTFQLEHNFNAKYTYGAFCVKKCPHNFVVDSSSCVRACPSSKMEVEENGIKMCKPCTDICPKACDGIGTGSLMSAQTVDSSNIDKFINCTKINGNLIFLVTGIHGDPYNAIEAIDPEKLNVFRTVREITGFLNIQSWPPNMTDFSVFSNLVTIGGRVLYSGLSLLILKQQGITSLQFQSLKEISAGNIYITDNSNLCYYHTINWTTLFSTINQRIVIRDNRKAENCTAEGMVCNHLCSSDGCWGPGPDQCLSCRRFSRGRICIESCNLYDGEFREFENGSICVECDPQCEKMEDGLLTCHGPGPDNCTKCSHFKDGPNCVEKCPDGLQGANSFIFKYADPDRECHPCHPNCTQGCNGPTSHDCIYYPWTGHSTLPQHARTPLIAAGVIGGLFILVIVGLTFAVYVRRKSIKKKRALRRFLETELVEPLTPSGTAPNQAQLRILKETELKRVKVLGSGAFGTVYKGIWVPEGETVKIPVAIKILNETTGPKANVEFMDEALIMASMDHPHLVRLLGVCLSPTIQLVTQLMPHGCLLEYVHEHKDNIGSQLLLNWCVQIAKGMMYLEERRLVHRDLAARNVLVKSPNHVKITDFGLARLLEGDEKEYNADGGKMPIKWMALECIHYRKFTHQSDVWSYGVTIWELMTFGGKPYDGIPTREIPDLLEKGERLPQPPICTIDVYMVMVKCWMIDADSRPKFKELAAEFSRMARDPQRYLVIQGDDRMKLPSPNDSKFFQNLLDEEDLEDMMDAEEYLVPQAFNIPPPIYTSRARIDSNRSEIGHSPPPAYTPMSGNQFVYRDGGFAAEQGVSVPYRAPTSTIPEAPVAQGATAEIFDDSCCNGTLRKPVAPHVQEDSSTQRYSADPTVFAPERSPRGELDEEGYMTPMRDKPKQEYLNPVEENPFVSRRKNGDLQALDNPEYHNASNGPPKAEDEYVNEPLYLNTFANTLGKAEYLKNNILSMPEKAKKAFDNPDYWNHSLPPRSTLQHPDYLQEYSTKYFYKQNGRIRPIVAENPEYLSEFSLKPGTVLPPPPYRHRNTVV

- percent of control binding [1]: 100% (inactive)
- percent of control binding ([2]; EGFR(E746-A750del)): 100% (inactive)
- percent of control binding ([2]; EGFR(G719C)): 89% (inactive)
- percent of control binding ([2]; EGFR(G719S)): 100% (inactive)
- percent of control binding ([2]; EGFR(L747-E749del, A750P)): 87% (inactive)
- percent of control binding ([2]; EGFR(L747-S752del, P753S)): 100% (inactive)
- percent of control binding ([2]; EGFR(L747-T751del,Sins)): 97% (inactive)
- percent of control binding ([2]; EGFR(L858R)): 77% (inactive)
- percent of control binding ([2]; EGFR(L861Q)): 59% (inactive)
- percent of control binding ([2]; EGFR(S752-I759del)): 100% (inactive)
- percent of control binding ([2]; EGFR): 86% (inactive)
- percent of control binding (DMPK): 93% (inactive)
- percent of control binding [3]: 95% (inactive)
- percent of control binding (MAP3K3): 82% (inactive)
- percent of control binding [4]: 96% (inactive)
- percent of control binding [5]: 94% (inactive)
- percent of control binding (ERK3): 86% (inactive)
- percent of control binding [6]: 100% (inactive)
- percent of control binding (ZAP70): 70% (inactive)
- percent of control binding [7]: 100% (inactive)
- percent of control binding (EPHA6): 93% (inactive)
- percent of control binding (MLK3): 99% (inactive)
- percent of control binding [8]: 95% (inactive)
- percent of control binding [9]: 100% (inactive)
- percent of control binding [10]: 100% (inactive)
- percent of control binding [11]: 67% (inactive)
- percent of control binding [12]: 100% (inactive)
- percent of control binding (PAK2): 84% (inactive)
- percent of control binding [13]: 75% (inactive)
- percent of control binding [14]: 100% (inactive)
- percent of control binding (NEK9): 100% (inactive)
- percent of control binding ([16]; BRAF(V600E)): 70% (inactive)
- percent of control binding ([16]; BRAF): 88% (inactive)
- percent of control binding [17]: 98% (inactive)
- percent of control binding [18]: 81% (inactive)
- percent of control binding (DMPK2): 72% (inactive)
- percent of control binding (MLCK): 91% (inactive)
- percent of control binding (ADCK4): 100% (inactive)
Structure (SMILES): Cc1cc2nc(NCCCO)n(CC(=O)c3cc(C(C)(C)C)c(O)c(C(C)(C)C)c3)c2cc1C
- percent of control binding [15]: 100% (inactive)
